Measurements published in US9464291B2, “Methods and compositions for the treatment of cancer” (University of South Alabama, priority 2012, dated 2016).

Key:
OPN = OPN expression in pre-osteoclastic RAW264.7 cells; assay type: cell-based, murine
Protocol: Western Blotting Analysis—Whole cell lysates were collected in NP-40 buffer (150 mM NaCl, 50 mM Tris, 1% NP-40). Total protein (30 μg) was resolved by SDS-PAGE gel and transferred to PVDF membranes. Membranes were immunoblotted overnight at 4° C. with antibodies to either SHH (Santacruz, Calif., USA) or IHH (Santacruz). Equal loading was confirmed with anti-β-tubulin (Cell Signaling, Danvers, Mass.). To assess OPN expression upon SHH treatment, […] were grown in 6-well plates in the presence of SHH. After 24 hours the cells were lysed in NP-40 buffer and 30 μg of each experimental group assessed by immunoblotting. To assess for the expression of OPN, MMP9 and CTSK, at the end of Day 6 of differentiation, all the different experimental groups were kept in serum free medium for 24 hrs and both, the conditioned media and whole cell lysates were collected and immunoblotted using antibodies to either anti-mouse OPN (Millipore, Bedford, Mass.), or CTSK (SantaCruz Biotech). Equal loading was confirmed with anti-β-actin (Sigma) antibody. Secreted MMP9 (Santa Cruz Biotech) was assessed by loading equal quantity of protein from the serum-free conditioned medium. […] Detection and quantification of proteins was done using Fuji LAS 3000 apparatus and Multigauge V3.1 software (Fujifilm, Valhalla, N.Y.). Band intensities were measured in arbitrary Units (AU). […]
Luciferase Assay—Cells were co-transfected with the OPN promoter construct, pGL3-OPNB and pSV-β-galactosidase (Promega) (Das, S., et al. (2009) J Biol Chem 284, 22888-22897). […] Readings were normalized to β-galactosidase. […]
Quantitative RT-PCR (qRT-PCR)-cDNA was generated using High Capacity Reverse Transcriptase Kit (Applied Biosystems, Foster City, Calif.). […] Following the experimental regime as described herein (for Osteoclast differentiation/activity) RNA was isolated using Trizol (Invitrogen) and assessed as describere herein. […]

Shh, Ihh = experiment: Shh and Ihh protein levels in A2780-CP70 cells; assay type: cell-based, human; conditions: cyclopamine-treated
Protocol: SHH and IHH protein levels were assessed in cyclopamine-treated A2780-CP70 cells by Western blot analysis. Referring to FIG. 28, SHH protein (51 kDa) was detected in cytoplasmic fractions, but not nuclear fractions of treated cells at 0 hr. […] At 48 hr, SHH protein levels were prominent in cytoplasmic and nuclear fractions, and remained prominent through 72 hr. Referring to FIG. 29, IHH protein (45 kDa) was detected in cytoplasmic and nuclear fractions of treated cells at 0 hr. At 6 hr, IHH protein levels were more prominent in nuclear fractions than in cytoplasmic fractions. At 24 hr, IHH protein levels were low in both nuclear and cytoplasmic fractions. However, at 48 hr IHH protein levels increased in nuclear fractions through to 72 hr. IHH was only weakly present in the cytoplasmic fractions between 48-72 hr. […] After 24 hr SHH and IHH protein levels were similar in nuclear and cytoplasmic fractions. SHH and IHH protein levels rebounded by 48 hr and 72 hr.
The effects of an IC50 dose of anti-Gli1 shRNA on cisplatin-sensitive A2780 cells and cisplatin-resistant A2780-CP70 cells were assessed. Cisplatin-sensitive A2780 cells and cisplatin-resisitant A2780-CP70 cells were treated with 2.0 μg/ml shRNA per 200 microliter well anti-Gli1 shRNA. Protein levels of Gli1, Gli2, c-jun, Shh, Ihh, and GAPDH (control) were measured. […]

SHH: recombinant Sonic hedgehog ligand (R & D Systems)
OPN protein levels (OPN; 24 hours post SHH): increased protein levels of OPN
OPN promoter activity (OPN; 24 hours post-SHH): increase in the activity of the OPN promoter
OPN mRNA levels (OPN; recombinant SHH): dose-dependent significant (p<0.0001) increase in OPN mRNA levels

CC1=C2C[C@H]3[C@@H](CC=C4C[C@@H](O)CC[C@@]43C)[C@@H]2CC[C@]12O[C@@H]1C[C@H](C)CN[C@H]1[C@H]2C [cyclopamine]
SHH and IHH protein levels (Shh, Ihh): reduced at 24 hr
